melting point: 148 to 151 °C
SMILES: Cc1nc(C(F)(F)F)ccc1C(=O)NCC1(CC2CC2)CCC(S(=O)(=O)CC2CC2)CC1 (stereo not shown) [Example 3, N-(4-Cyclopropylmethanesulfonyl-1-cyclopropylmethyl-cyclohexylmethyl)-2-methyl-6-trifluoromethyl-nicotinamide]
